Tests used:
[1] = target: Carboxylic ester hydrolase (Equus caballus, UniProt Q9N1N9); test: In Vitro AChE and BuChE Inhibition Assays; conditions: pH 8
Procedure: (§1) Enzyme solutions were prepared to give 2 units/mL in 2 mL aliquots. […] The substrate was added to the assay medium containing enzyme, buffer and DTNB with inhibitor after 15 min of incubation time.

Acetylcholinesterase = Acetylcholinesterase (Electrophorus electricus, UniProt O42275); test: In Vitro AChE and BuChE Inhibition Assays; conditions: pH 8
Procedure: as §1

Sequence of Acetylcholinesterase (O42275 whole entry): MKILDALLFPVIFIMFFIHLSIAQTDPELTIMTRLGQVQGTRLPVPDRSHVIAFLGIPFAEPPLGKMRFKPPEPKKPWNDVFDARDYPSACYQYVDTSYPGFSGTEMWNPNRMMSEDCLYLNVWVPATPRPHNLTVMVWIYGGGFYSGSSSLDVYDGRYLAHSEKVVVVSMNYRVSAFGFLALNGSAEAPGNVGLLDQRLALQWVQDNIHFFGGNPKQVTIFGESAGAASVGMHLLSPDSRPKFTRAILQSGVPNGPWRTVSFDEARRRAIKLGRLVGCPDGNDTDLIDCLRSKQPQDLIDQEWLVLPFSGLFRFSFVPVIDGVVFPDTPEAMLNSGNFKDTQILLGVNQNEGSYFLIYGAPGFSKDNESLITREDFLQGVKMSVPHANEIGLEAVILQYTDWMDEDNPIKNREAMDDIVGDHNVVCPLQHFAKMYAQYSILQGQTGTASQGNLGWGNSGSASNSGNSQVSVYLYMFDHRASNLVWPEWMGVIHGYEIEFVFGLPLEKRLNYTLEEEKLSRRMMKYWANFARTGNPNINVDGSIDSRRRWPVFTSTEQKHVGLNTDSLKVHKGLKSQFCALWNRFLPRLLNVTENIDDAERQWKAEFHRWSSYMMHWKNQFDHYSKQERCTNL
Sequence of Carboxylic ester hydrolase (Q9N1N9 whole entry): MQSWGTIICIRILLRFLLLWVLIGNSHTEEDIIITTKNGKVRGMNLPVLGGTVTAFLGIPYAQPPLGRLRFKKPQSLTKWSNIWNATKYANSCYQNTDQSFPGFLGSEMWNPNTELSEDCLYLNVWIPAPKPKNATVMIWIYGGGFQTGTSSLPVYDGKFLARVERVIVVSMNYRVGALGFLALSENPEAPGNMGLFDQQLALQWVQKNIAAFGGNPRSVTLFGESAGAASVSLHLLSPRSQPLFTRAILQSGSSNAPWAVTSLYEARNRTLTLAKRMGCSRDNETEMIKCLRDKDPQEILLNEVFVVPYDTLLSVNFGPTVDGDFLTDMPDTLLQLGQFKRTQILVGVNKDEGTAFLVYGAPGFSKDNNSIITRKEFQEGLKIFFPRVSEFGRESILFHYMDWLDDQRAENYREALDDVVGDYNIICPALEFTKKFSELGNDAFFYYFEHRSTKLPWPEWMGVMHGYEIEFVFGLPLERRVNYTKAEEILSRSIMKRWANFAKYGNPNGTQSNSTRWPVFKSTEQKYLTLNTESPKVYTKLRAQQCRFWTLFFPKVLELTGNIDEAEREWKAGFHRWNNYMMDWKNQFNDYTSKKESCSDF

Compound	IC50 [1]	IC50 (Acetylcholinesterase)
O=c1[nH]c(-c2cc3ccccc3[nH]2)nc2ccccc12 [2-(2-Indolyl-)-4(3H)-quinazolines (2IQ)]	> 10 µM	> 10 µM
O=C(CN1CCCC1)Nc1ccc2nc(-c3cc4ccccc4[nH]3)[nH]c(=O)c2c1 [N-(2-(1H-indol-2-yl)-4-oxo-3,4-dihydroquinazolin-6-yl)-2-(pyrrolidin-1-yl)acetamide (3b)]	3.1 µM	0.327 µM
CN1CCN(CC(=O)Nc2ccc3nc(-c4cc5ccccc5[nH]4)[nH]c(=O)c3c2)CC1 [N-(2-(1H-indol-2-yl)-4-oxo-3,4-dihydroquinazolin-6-yl)-2-(4-methylpiperazin-1-yl)acetamide (3e)]	> 10 µM	> 10 µM
CCN(CC)CCCNc1nc(-c2cc3ccccc3[nH]2)nc2ccccc12 [N1-(2-(1H-indol-2-yl)quinazolin-4-yl)-N3,N3-diethylpropane-1,3-diamine (9b)]	> 10 µM	> 10 µM
O=C(CN1CCCCC1)Nc1ccc2nc(-c3cc4ccccc4[nH]3)[nH]c(=O)c2c1 [N-(2-(1H-indol-2-yl)-4-oxo-3,4-dihydroquinazolin-6-yl)-2-(piperidin-1-yl)acetamide (3c)]	10.2 µM	0.148 µM
CCN(CC)CC(=O)Nc1ccc2nc(-c3cc4ccccc4[nH]3)[nH]c(=O)c2c1 [N-(2-(1H-indol-2-yl)-4-oxo-3,4-dihydroquinazolin-6-yl)-2-(diethylamino)acetamide (3a)]	14.8 µM	0.503 µM
CCN(CC)CCC(=O)Nc1ccc2nc(-c3cc4ccccc4[nH]3)[nH]c(=O)c2c1 [N-(2-(1H-indol-2-yl)-4-oxo-3,4-dihydroquinazolin-6-yl)-3-(diethylamino)propanamide (3f)]	2.43 µM	0.276 µM
O=C(CN1CCOCC1)Nc1ccc2nc(-c3cc4ccccc4[nH]3)[nH]c(=O)c2c1 [N-(2-(1H-indol-2-yl)-4-oxo-3,4-dihydroquinazolin-6-yl)-2-morpholinoacetamide (3d)]	32.2 µM	2.02 µM
CN(C)CCCNc1nc(-c2cc3ccccc3[nH]2)nc2ccccc12 [N1-(2-(1H-indol-2-yl)quinazolin-4-yl)-N3,N3-dimethylpropane-1,3-diamine (9a)]	> 10 µM	> 10 µM
CN1CCN(CCC(=O)Nc2ccc3nc(-c4cc5ccccc5[nH]4)[nH]c(=O)c3c2)CC1 [N-(2-(1H-indol-2-yl)-4-oxo-3,4-dihydroquinazolin-6-yl)-3-(4-methylpiperazin-1-yl)propanamide (3j)]	> 10 µM	> 10 µM
O=C(CCN1CCOCC1)Nc1ccc2nc(-c3cc4ccccc4[nH]3)[nH]c(=O)c2c1 [N-(2-(1H-indol-2-yl)-4-oxo-3,4-dihydroquinazolin-6-yl)-3-morpholinopropanamide (3i)]	51.6 µM	1.26 µM
O=C(CCN1CCCC1)Nc1ccc2nc(-c3cc4ccccc4[nH]3)[nH]c(=O)c2c1 [N-(2-(1H-indol-2-yl)-4-oxo-3,4-dihydroquinazolin-6-yl)-3-(pyrrolidin-1-yl)propanamide (3g)]	0.403 µM	0.1 µM
O=C(CCN1CCCCC1)Nc1ccc2nc(-c3cc4ccccc4[nH]3)[nH]c(=O)c2c1 [N-(2-(1H-indol-2-yl)-4-oxo-3,4-dihydroquinazolin-6-yl)-3-(piperidin-1-yl)propanamide (3h)]	7.32 µM	0.021 µM

Source: BindingDB's records for doi:10.3109/14756366.2012.663363 (Sun Yat-Sen University, 2013)
